This passage reports IC50 and Activity results from ChEMBL document CHEMBL4622913, “Synthesis and biological evaluation of arylphosphonium-benzoxaborole conjugates as novel anticancer agents” (Bioorg Med Chem Lett, 2020).

Active and inactive are the calls of the source. The calls are words filed in the database; no cut-off is given here. Some results are limits rather than exact numbers.

What all share (format): functional, cell-based
Assay [1] deals with MCF7. As to the kind of experiment: Antiproliferative activity against human MCF7 cells assessed as reduction in cell viability after 72 hrs by MTT assay. The following applies: MCF7, 72 h. Background: Formazan colour is commonly taken as a measure of viable cells.
The test system of assay [2] is 4T1. As to the kind of experiment: Antiproliferative activity against mouse 4T1 cells assessed as reduction in cell viability after 72 hrs by MTT assay. The following applies: 4T1, 72 h.
Assay [3] deals with MIA PaCa-2. In words: Antiproliferative activity against human MIAPaCa2 cells assessed as reduction in cell viability after 72 hrs by MTT assay. To be noted: MIA PaCa-2, 72 h.
Assay [4] deals with WiDr. In words: Antiproliferative activity against human WiDr cells assessed as reduction in cell viability after 72 hrs by MTT assay.
The subject of assay [5] is 4T1. As to the kind of experiment: Induction of mitochondrial morphological changes in mouse 4T1 cells assessed as fragmentation of mitochondrial networks at 100 uM after 24 hrs by mitotracker Red-CMXROS dye based epifluorescent microscopic analysis.
Assay [6] concerns 4T1. In words: Induction of mitochondrial stress in mouse 4T1 cells assessed as acute change in oxygen consumption rate by measuring reduction in ATP production at 100 uM in presence of oligomycin/FCCP/antimycin/rotenone by seahorse XFe96 analyser based assay.
In assay [7] the test system is WiDr. In words: Induction of mitochondrial membrane damage in human WiDr cells assessed as increase in proton leak at 50 to 100 uM in presence of oligomycin/FCCP/antimycin/rotenone by seahorse XFe96 analyser based assay.
Assay [8] relates to 4T1. In words: Induction of glycolytic stress in mouse 4T1 cells assessed as increase in glycolysis at 50 to 100 uM in presence of glucose/oligomycin and 2-deoxyglucose by seahorse XFe96 analyser based assay.
For assay [9], the system named is WiDr. As to the kind of experiment: Induction of mitochondrial stress in human WiDr cells assessed as reduction in maximal respiration at 50 to 100 uM in presence of oligomycin/FCCP/antimycin/rotenone by seahorse XFe96 analyser based assay.
Assay [10] deals with WiDr. As to the kind of experiment: Induction of mitochondrial stress in human WiDr cells assessed as acute change in oxygen consumption rate by measuring reduction in ATP production at 50 to 100 uM in presence of oligomycin/FCCP/antimycin/rotenone by seahorse XFe96 analyser based assay.
Assay [11] deals with WiDr. In words: Induction of mitochondrial morphological changes in human WiDr cells assessed as fragmentation of mitochondrial networks at 100 uM after 24 hrs by mitotracker Red-CMXROS dye based epifluorescent microscopic analysis.
The test system of assay [12] is 4T1. As to the kind of experiment: Induction of glycolytic stress in mouse 4T1 cells assessed as reduction in glycolytic reverse at 50 to 100 uM in presence of glucose/oligomycin and 2-deoxyglucose by seahorse XFe96 analyser based assay.
In assay [13] the test system is WiDr. As to the kind of experiment: Induction of glycolytic stress in human WiDr cells assessed as increase in glycolysis at 50 to 100 uM in presence of glucose/oligomycin and 2-deoxyglucose by seahorse XFe96 analyser based assay.
The test system of assay [14] is 4T1. In words: Induction of mitochondrial membrane damage in mouse 4T1 cells assessed as increase in proton leak at 50 to 100 uM in presence of oligomycin/FCCP/antimycin/rotenone by seahorse XFe96 analyser based assay.
Assay [15] has as its system 4T1. In words: Induction of mitochondrial stress in mouse 4T1 cells assessed as effect on spare respiratory capacity at 50 to 100 uM in presence of oligomycin/FCCP/antimycin/rotenone by seahorse XFe96 analyser based assay.
The subject of assay [16] is WiDr. In words: Induction of mitochondrial stress in human WiDr cells assessed as effect on spare respiratory capacity at 50 to 100 uM in presence of oligomycin/FCCP/antimycin/rotenone by seahorse XFe96 analyser based assay.
Assay [17] has as its system 4T1. In words: Induction of mitochondrial stress in mouse 4T1 cells assessed as reduction in maximal respiration at 100 uM in presence of oligomycin/FCCP/antimycin/rotenone by seahorse XFe96 analyser based assay.
For assay [18], the system named is 4T1. As to the kind of experiment: Induction of glycolytic stress in mouse 4T1 cells assessed as reduction in glycolytic capacity at 50 to 100 uM in presence of glucose/oligomycin and 2-deoxyglucose by seahorse XFe96 analyser based assay.
For assay [19], the system named is WiDr. As to the kind of experiment: Induction of glycolytic stress in human WiDr cells assessed as reduction in glycolytic capacity at 100 uM in presence of glucose/oligomycin and 2-deoxyglucose by seahorse XFe96 analyser based assay.
The test system of assay [20] is WiDr. In words: Induction of glycolytic stress in human WiDr cells assessed as reduction in glycolytic reverse at 50 to 100 uM in presence of glucose/oligomycin and 2-deoxyglucose by seahorse XFe96 analyser based assay.

With `COc1ccc([P+](CCC(=O)Nc2ccc3c(c2)B(O)OC3)(c2ccc(OC)cc2)c2ccc(OC)cc2)cc1`, the IC50 in assay [1], in [2], in assay [3] and in assay [4] was over 100 µM each time.

For the compound `Cc1ccc([P+](CCC(=O)Nc2ccc3c(c2)B(O)OC3)(c2ccc(C)cc2)c2ccc(C)cc2)cc1`, the outcome in assay [5], in [6], in assay [7], in assay [8], in assay [9] and in assay [10] was Active. For the same compound, the outcome in [11], in [12], in [13], in assay [14], in assay [19] and in assay [20] was Active. The IC50 worked out at 46 µM in [1], 50 µM in assay [2], 44 µM in assay [3] and 24 µM in assay [4]. For the same compound, the result in [15], in assay [16], in assay [17] and in assay [18] was inactive.

Regarding `O=C(CC[P+](c1ccccc1)(c1ccccc1)c1ccccc1)Nc1ccc2c(c1)B(O)OC2`, the result in assay [5] and in assay [11] was inactive. Further, the IC50 in assay [1], in [2], in assay [3] and in assay [4] was over 100 µM each time.

`O=C(CC[P+](c1ccccc1)(c1ccccc1)C1CCCCC1)Nc1ccc2c(c1)B(O)OC2`: the IC50 in assay [1], in assay [2], in assay [3] and in assay [4] was over 100 µM throughout.

`O=C(CC[P+](c1ccc(F)cc1)(c1ccc(F)cc1)c1ccc(F)cc1)Nc1ccc2c(c1)B(O)OC2`: the outcome in assay [5] and in assay [11] was inactive. Further, the IC50 in [1], in [2], in [3] and in assay [4] was over 100 µM each time.

For the compound `O=C(CCBr)Nc1ccc2c(c1)B(O)OC2`, the IC50 in assay [1], in assay [2], in [3] and in assay [4] was over 100 µM each time.

What is called IC50 is the concentration needed to halve the response being measured.
